Test results published in patent EP1881000A1, “Conjugates of 2-fluoro-2-deoxy-glucose and their uses as anti cancer agents” (INSTITUT NATIONAL DE LA SANTE ET DE LA RECHERCHE MEDICALE …, priority 2006, dated 2008).

What was measured:
[1] = Determination of the Maximum Tolerated Dose (MTD), acute toxicity after a single IP injection; type: in vivo, male OF1 mice; parameters: key to Clinical State Score (CSS) diarrhoea / Clinical State Score (CSS) rough coat / Clinical State Score (CSS) closed eyes / Clinical State Score (CSS) lethargy / Clinical State Score (CSS) total: per mouse 0 = absent, 1 = present per sign; summed over group; settings: for dosage inducing high side effects (mainly diarrhoea): as early as Day 1 after IP administration; for MTD at 2 weeks: male, OF1, mouse, in vivo, zero deaths, maximal weight loss 15 % at Day 1, CSS as low as possible; for MTD at 2 weeks / doses inducing 100% mortality: single IP administration; for Clinical State Score (CSS) closed eyes / Clinical State Score (CSS) diarrhoea / Clinical State Score (CSS) lethargy / Clinical State Score (CSS) rough coat / Clinical State Score (CSS) total: group sum; for Number of deaths (day): non-tumour bearing mice
Protocol: Drugs were dissolved in a mixture of dimethylacetamide (Sigma) and oleic macrogolglycerides (Labrafil® M1944Cs, Gattefossé) (10:90%, vol/vol).
Initially, the Maximum Tolerated Dose (MTD) after intraperitoneal (IP) administration was determinated.
For MTD determination, study was conducted on male OF1 mice weighing about 30 g, 6-weeks old (Charles River, France). Groups of five to six mice received a single IP injection of each drug at variable doses according to the compound (see Tables 2, 3 and 4).
Individual dose were based on the body weight of each mouse. All the mice received a constant injection volume of 250 µL per 25 g of body weight. A group of seven control mice received the vehicle.
After IP injection, mice were weighed and observed every two days over a 2 week-period to evaluate general clinical state. For each animal, a clinical state score (CSS) was calculated based on the absence (value 0) or presence (value 1) of diarrhoea, lethargy, rough coat and closed eyes. CSS was then calculated per group by summing individual scores. Loss of weight and mortality were also recorded.

[2] = tested on: colon adenocarcinoma DLD-1; experiment: In vitro cytotoxicity assay (resazurin reduction test); type: cell-based; settings: Homo sapiens, DLD1, 48-h continuous drug exposure
Source text: (§1) Normal human fibroblasts were purchased from Promocell (Heidelberg, Germany). This frozen culture was obtained from foreskin waste and the cells used in this work were from the seventh to twelfth passage of the culture. M4Beu, a human melanoma cell line, was established in the laboratory of Dr. J. F. Doré (INSERM, Unit 218, Lyon, France) from metastatic biopsy specimens and maintained in cell culture for almost 20 years in our lab. Breast cancer adenocarcinoma MCF 7, prostatic adenocarcinoma PC 3, colon adenocarcinoma DLD-1, lung non-small cell carcinoma A 549, ovary adenocarcinoma PA1 human cell lines and L 929 murine cell line were purchased from the European Collection of Cell Cultures (ECACC; Salisbury, United Kingdom). Murine Melanoma B16 was purchased from American Type of Culture Collection (ATCC, Manassas, USA) and murine colon carcinoma cell line CT-26 was obtained from Dr I. J. Fidler (University of Texas M.D. Anderson Cancer Center, Houston).
(§2) Stock cell cultures were maintained as monolayers in 75cm^2 culture flasks in Glutamax Eagle's minimum essential medium with Earle's salts (MEM; Gibco BRL, Paisley, UK) supplemented with 10% fetal calf serum (Sigma, St Quentin Fallavier, France), 1 mM sodium pyruvate (Gibco), 1X vitamins solution (Gibco), 1X non essential amino acids solution (Gibco) and 4 µg/ml of gentamicine (Gibco). Cells were grown at 37°C in a humidified atmosphere containing 5% CO2.
(§3) Cells were plated at a density of 5 x 10^3 cells per well in 96-well microplates (Nunclon™, Nunc, Roskilde, Denmark) in 150 µl of culture medium and were allowed to adhere for 16 h before treatment with the compound tested.
(§4) Stock solution of each compound was prepared in dimethylsulfoxide (DMSO) and kept at -20°C. until use. The percentage of DMSO was kept at 0.5% (v/v) whichever the concentration tested. […] Fifty microliters of a 4X solution in MEM was then added and a 48-h continuous drug exposure protocol was used. Then, the cytotoxic effect of compounds on tumour cells was tested by using Resazurin reduction test.
(§5) Resazurin was identified as the Alamar blue dye (O'Brien, J. et al.; European Journal of Biochemistry, 267, 5421-6, (2000)). The resazurin reduction test (RRT) was carried out according to the protocol described here. Briefly, plates were rinsed by 200 µl PBS (37° C, Gibco) using a multichannel dispenser (Labsystems, Helsinki, Finland) and emptied by overturning on absorbent toweling. Then, 150 µl of a 25 µg/ml solution of resazurin in MEM without SVF nor Phenol red was added in each well. The plates were incubated 1 h at 37° C. in an humidified atmosphere with 5% of CO2 for fluorescence development by living cells. Fluorescence was then measured on the automated 96-well plate reader Fluoroskan Ascent FL™ (Labsystems) using an excitation wavelength of 530 nm and an emission one of 590 nm.
(§6) Cytotoxic activity has been tested against the six human tumour cell lines breast adenocarcinoma MCF-7, colon adenocarcinoma DLD-1, ovary adenocarcinoma PA1, prostatic adenocarcinoma PC3, lung carcinoma A549, melanoma M4Beu and a primary culture of human fibroblasts.

ovary adenocarcinoma PA1 = experiment: as above; type: cell-based; settings: Homo sapiens, 48-h continuous drug exposure
Source text: as §1, §2, §3, §4, §5, §6

[3] = tested on: lung non-small cell carcinoma A 549; experiment: as above; type: cell-based; settings: Homo sapiens; A549; 48-h continuous drug exposure
Source text: as §1, §2, §3, §4, §5, §6

Normal human fibroblasts = experiment: as above; type: cell-based; settings: Fibroblast, 48-h continuous drug exposure
Source text: as §1, §2, §3, §4, §5, §6

[4] = tested on: M4Beu, a human melanoma cell line; experiment: as above; type: cell-based; settings: 48-h continuous drug exposure
Source text: as §1, §2, §3, §4, §5, §6

SMILES: CC(=O)OC[C@H]1O[C@@H](NC(=O)CNC(=O)CCCc2ccc(N(CCCl)CCCl)cc2)[C@H](F)[C@@H](OC(C)=O)[C@@H]1OC(C)=O [Compound 21a, N-[2-(3,4,6-tri-O-acetyl-2-deoxy-2-fluoro-β-D-glucopyranosylamino)-2-oxoethyl]-4-{4-[bis(2-chloroethyl)amino]phenyl}butanamide]
- dosage inducing high side effects (mainly diarrhoea) [1]: ≥ 0.14 mmol/kg
- MTD at 2 weeks [1]: 140 µmol/kg
- Weight loss at day 1 ([1]; single IP 0.07 mmol/kg): 5.6%
- Clinical State Score (CSS) closed eyes ([1]; single IP 0.07 mmol/kg): 0
- Clinical State Score (CSS) diarrhoea ([1]; single IP 0.07 mmol/kg): 1
- Clinical State Score (CSS) lethargy ([1]; single IP 0.07 mmol/kg): 0
- Clinical State Score (CSS) rough coat ([1]; single IP 0.07 mmol/kg): 0
- Clinical State Score (CSS) total ([1]; single IP 0.07 mmol/kg): 1
- Number of deaths (day) ([1]; single IP 0.07 mmol/kg): 0
- Weight loss at day 1 ([1]; single IP 0.14 mmol/kg): 8.4%
- Clinical State Score (CSS) closed eyes ([1]; single IP 0.14 mmol/kg): 0
- Clinical State Score (CSS) diarrhoea ([1]; single IP 0.14 mmol/kg): 4
- Clinical State Score (CSS) lethargy ([1]; single IP 0.14 mmol/kg): 0
- Clinical State Score (CSS) rough coat ([1]; single IP 0.14 mmol/kg): 0
- Clinical State Score (CSS) total ([1]; single IP 0.14 mmol/kg): 4
- Number of deaths (day) ([1]; single IP 0.14 mmol/kg): 0
- Weight loss at day 1 ([1]; single IP 0.18 mmol/kg): 10.4%
- Clinical State Score (CSS) closed eyes ([1]; single IP 0.18 mmol/kg): 0
- Clinical State Score (CSS) diarrhoea ([1]; single IP 0.18 mmol/kg): 4
- Clinical State Score (CSS) lethargy ([1]; single IP 0.18 mmol/kg): 0
- Clinical State Score (CSS) rough coat ([1]; single IP 0.18 mmol/kg): 4
- Clinical State Score (CSS) total ([1]; single IP 0.18 mmol/kg): 8
- Number of deaths (day) ([1]; single IP 0.18 mmol/kg): 1
- Weight loss at day 1 ([1]; single IP 0.21 mmol/kg): 9.7%
- Clinical State Score (CSS) closed eyes ([1]; single IP 0.21 mmol/kg): 0
- Clinical State Score (CSS) diarrhoea ([1]; single IP 0.21 mmol/kg): 1
- Clinical State Score (CSS) lethargy ([1]; single IP 0.21 mmol/kg): 2
- Clinical State Score (CSS) rough coat ([1]; single IP 0.21 mmol/kg): 4
- Clinical State Score (CSS) total ([1]; single IP 0.21 mmol/kg): 7
- Number of deaths (day) ([1]; single IP 0.21 mmol/kg): 1 (D1)
- Number of deaths (day) ([1]; single IP 0.28 mmol/kg): 4 (D1)
- Number of deaths (day) ([1]; single IP 0.56 mmol/kg): 4 (D1)
- Number of deaths (day) ([1]; single IP 0.76 mmol/kg): 5 (D1)
- doses inducing 100% mortality [1]: 0.76 mmol/kg
- IC50 [2]: 4 ± 3 µM
- IC50 (ovary adenocarcinoma PA1): 1 ± 0.1 µM
- IC50 [3]: 5 ± 2 µM
- IC50 (Normal human fibroblasts): 4.1 ± 0.1 µM
- IC50 [4]: 6.8 ± 0.9 µM

SMILES: CC(=O)OC[C@H]1O[C@@H](Oc2ccc(NC(=O)CNC(=O)CCCc3ccc(N(CCCl)CCCl)cc3)cc2)[C@H](F)[C@@H](OC(C)=O)[C@@H]1OC(C)=O [Compound 40a, N-{2-[4-(3,4,6-tri-O-acetyl-2-deoxy-2-fluoro-β-D-glucopyranosyloxy)phenyl]amino-2-oxoethyl}-4-{4-[bis(2-chloroethyl)amino]phenyl}butanamide]
- dosage inducing high side effects (mainly diarrhoea) [1]: ≥ 0.07 mmol/kg
- MTD at 2 weeks [1]: 140 µmol/kg
- Weight loss at day 1 ([1]; single IP 0.07 mmol/kg): 6.3%
- Clinical State Score (CSS) closed eyes ([1]; single IP 0.07 mmol/kg): 0
- Clinical State Score (CSS) diarrhoea ([1]; single IP 0.07 mmol/kg): 2
- Clinical State Score (CSS) lethargy ([1]; single IP 0.07 mmol/kg): 0
- Clinical State Score (CSS) rough coat ([1]; single IP 0.07 mmol/kg): 0
- Clinical State Score (CSS) total ([1]; single IP 0.07 mmol/kg): 2
- Number of deaths (day) ([1]; single IP 0.07 mmol/kg): 0
- Weight loss at day 1 ([1]; single IP 0.14 mmol/kg): 14.9%
- Clinical State Score (CSS) closed eyes ([1]; single IP 0.14 mmol/kg): 0
- Clinical State Score (CSS) diarrhoea ([1]; single IP 0.14 mmol/kg): 2
- Clinical State Score (CSS) lethargy ([1]; single IP 0.14 mmol/kg): 0
- Clinical State Score (CSS) rough coat ([1]; single IP 0.14 mmol/kg): 0
- Clinical State Score (CSS) total ([1]; single IP 0.14 mmol/kg): 2
- Number of deaths (day) ([1]; single IP 0.14 mmol/kg): 0
- Weight loss at day 1 ([1]; single IP 0.18 mmol/kg): 8.2%
- Clinical State Score (CSS) closed eyes ([1]; single IP 0.18 mmol/kg): 0
- Clinical State Score (CSS) diarrhoea ([1]; single IP 0.18 mmol/kg): 3
- Clinical State Score (CSS) lethargy ([1]; single IP 0.18 mmol/kg): 0
- Clinical State Score (CSS) rough coat ([1]; single IP 0.18 mmol/kg): 3
- Clinical State Score (CSS) total ([1]; single IP 0.18 mmol/kg): 6
- Number of deaths (day) ([1]; single IP 0.18 mmol/kg): 2
- Number of deaths (day) ([1]; single IP 0.21 mmol/kg): 3 (D6)
- Weight loss at day 1 ([1]; single IP 0.28 mmol/kg): 18.3%
- Clinical State Score (CSS) closed eyes ([1]; single IP 0.28 mmol/kg): 2
- Clinical State Score (CSS) diarrhoea ([1]; single IP 0.28 mmol/kg): 4
- Clinical State Score (CSS) lethargy ([1]; single IP 0.28 mmol/kg): 2
- Clinical State Score (CSS) rough coat ([1]; single IP 0.28 mmol/kg): 0
- Clinical State Score (CSS) total ([1]; single IP 0.28 mmol/kg): 8
- Number of deaths (day) ([1]; single IP 0.28 mmol/kg): 2 (D1)
- Number of deaths (day) ([1]; single IP 0.42 mmol/kg): 3(D6)
- Number of deaths (day) ([1]; single IP 0.56 mmol/kg): 5(D6,7,9,13,15)
- doses inducing 100% mortality [1]: 0.56 mmol/kg
- IC50 [2]: 6 ± 2 µM
- IC50 (ovary adenocarcinoma PA1): 1.5 ± 0.5 µM
- IC50 [3]: 10 ± 5 µM
- IC50 (Normal human fibroblasts): 17 ± 6 µM
- IC50 [4]: 15 ± 6 µM

SMILES: O=C(O)CCCc1ccc(N(CCCl)CCCl)cc1 [chlorambucil, reference compound]
- dosage inducing high side effects (mainly diarrhoea) [1]: ≥ 0.0175 mmol/kg
- MTD at 2 weeks [1]: 50 µmol/kg
- Weight loss at day 1 ([1]; single IP 0.0175 mmol/kg): 1.4%
- Number of deaths (day) ([1]; single IP 0.0175 mmol/kg): 0
- Weight loss at day 1 ([1]; single IP 0.035 mmol/kg): 6.1%
- Number of deaths (day) ([1]; single IP 0.035 mmol/kg): 0
- Weight loss at day 1 ([1]; single IP 0.05 mmol/kg): 12.9%
- Number of deaths (day) ([1]; single IP 0.05 mmol/kg): 0
- Weight loss at day 1 ([1]; single IP 0.07 mmol/kg): 13.1%
- Number of deaths (day) ([1]; single IP 0.07 mmol/kg): 0
- Weight loss at day 1 ([1]; single IP 0.09 mmol/kg): 26%
- Number of deaths (day) ([1]; single IP 0.09 mmol/kg): 1 (D1)
- Number of deaths (day) ([1]; single IP 0.14 mmol/kg): 4 (D1)
- doses inducing 100% mortality [1]: 0.14 mmol/kg
- IC50 [2]: 47 ± 17 µM
- IC50 (ovary adenocarcinoma PA1): 2.8 ± 0.4 µM
- IC50 [3]: 43 ± 14 µM
- IC50 (Normal human fibroblasts): 99 ± 2 µM
- IC50 [4]: > 100 µM
